# Assay results taken from patent US20250195551A1 (L4 BIO LLC, priority 2023, published 2025).
# Assays:
# [1] = biological target: neuronal alpha-7-nicotinic receptor (Homo sapiens, UniProt P36544); conditions: interaction with neuronal alpha-7-nicotinic receptor in humans; cited from earlier work
# [2] = biological target: T1, purinergic P2X4 receptors (Homo sapiens, UniProt Q99571); conditions: interaction with purinergic P2X4 receptors in humans; cited from earlier work
# T1 sequence (Q99571 1-388): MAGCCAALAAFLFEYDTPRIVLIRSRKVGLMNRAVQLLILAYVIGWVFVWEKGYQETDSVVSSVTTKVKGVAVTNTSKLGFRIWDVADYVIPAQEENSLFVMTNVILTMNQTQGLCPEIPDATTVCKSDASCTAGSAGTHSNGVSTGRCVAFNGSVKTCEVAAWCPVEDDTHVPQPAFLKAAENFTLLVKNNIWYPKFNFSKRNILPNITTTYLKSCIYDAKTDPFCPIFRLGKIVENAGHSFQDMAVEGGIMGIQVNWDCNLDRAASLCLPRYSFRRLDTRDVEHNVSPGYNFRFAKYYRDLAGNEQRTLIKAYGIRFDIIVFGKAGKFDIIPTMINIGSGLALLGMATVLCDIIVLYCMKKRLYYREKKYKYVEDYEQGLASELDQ
# [3] = Pharmacokinetic profiles of Ivermectin B1a in Sprague Dawley rat plasma after IV and oral administration; format: in vivo, Sprague Dawley rats; conditions: Ivermectin B1a in SD rat plasma; single IV 2 mg/kg; fasting; male
# Description: Thirty-six male Sprague Dawley rats were randomly assigned into four groups, with nine male rats in each group. All animals in all groups are fasted overnight prior to the experimental date.
# Blood samples were collected from 6 of 9 animals per group at 0.5, 1, 2, 3, 4, 6, 8, 24, 72, 120, 168 hours post-dose.
# [4] = biological target: glycine receptor (GlyR); conditions: interaction with glycine receptor (GlyR) in humans; cited from earlier work
# [5] = Excipient compatibility study; format: physicochemical; conditions: for Chromatographic purity by HPLC (Assay) / Total Impurities % (excluding API impurities %): 40° C./75% RH
# Description: An excipient compatibility study was initiated with selected excipients ranging from oils to surfactants based on equilibrium solubility results (Table 2). […] After solutions were prepared using a hand-held homogenizer (Model IKAT10 Ultra-Turrax), each excipient sample was aliquoted in amber vials, approximately 10% water was added in each excipient aliquot, and bench scale gel stripe OET-004037 was also made and added in a separate set of aliquot samples at approximately 1:1 w/w.
# All samples were stored at 40° C./75% relative humidity (RH) condition (Model: Lunaire environmental chamber) and tested by developmental reversed phase HPLC method for Assay/Related Substances at T=0, 2 weeks, and 1 month.
# [6] = in Fractionated coconut oil, Sample: 10% water, T = 2 weeks
# [7] = in Fractionated coconut oil, Sample: Control, T = 0
# [8] = in Fractionated coconut oil, Sample: Control, T = 2 weeks
# [9] = in Fractionated coconut oil, Sample: Gel Stripe (1:1 w/w), T = 2 weeks
# [10] = in Labrasol ALF, Sample: 10% water, T = 1 months
# [11] = in Labrasol ALF, Sample: 10% water, T = 2 weeks
# [12] = in Labrasol ALF, Sample: Control, T = 0
# [13] = in Labrasol ALF, Sample: Control, T = 1 months
# [14] = in Labrasol ALF, Sample: Control, T = 2 weeks
# [15] = in Labrasol ALF, Sample: Gel Stripe (1:1 w/w), T = 1 months
# [16] = in Labrasol ALF, Sample: Gel Stripe (1:1 w/w), T = 2 weeks
# [17] = in Maisine CC, Sample: 10% water, T = 1 months
# [18] = in Maisine CC, Sample: 10% water, T = 2 weeks
# [19] = in Maisine CC, Sample: Control, T = 0
# [20] = in Maisine CC, Sample: Control, T = 1 months
# [21] = in Maisine CC, Sample: Control, T = 2 weeks
# [22] = in Maisine CC, Sample: Gel Stripe (1:1 w/w), T = 1 months
# [23] = in Maisine CC, Sample: Gel Stripe (1:1 w/w), T = 2 weeks
# [24] = in Masester E8120, Sample: 10% water, T = 1 months
# [25] = in Masester E8120, Sample: 10% water, T = 2 weeks
# [26] = in Masester E8120, Sample: Control, T = 0
# [27] = in Masester E8120, Sample: Control, T = 1 months
# [28] = in Masester E8120, Sample: Control, T = 2 weeks
# [29] = in Masester E8120, Sample: Gel Stripe (1:1 w/w), T = 1 months
# [30] = in Masester E8120, Sample: Gel Stripe (1:1 w/w), T = 2 weeks
# Chain of neuronal alpha-7-nicotinic receptor (P36544 23-502): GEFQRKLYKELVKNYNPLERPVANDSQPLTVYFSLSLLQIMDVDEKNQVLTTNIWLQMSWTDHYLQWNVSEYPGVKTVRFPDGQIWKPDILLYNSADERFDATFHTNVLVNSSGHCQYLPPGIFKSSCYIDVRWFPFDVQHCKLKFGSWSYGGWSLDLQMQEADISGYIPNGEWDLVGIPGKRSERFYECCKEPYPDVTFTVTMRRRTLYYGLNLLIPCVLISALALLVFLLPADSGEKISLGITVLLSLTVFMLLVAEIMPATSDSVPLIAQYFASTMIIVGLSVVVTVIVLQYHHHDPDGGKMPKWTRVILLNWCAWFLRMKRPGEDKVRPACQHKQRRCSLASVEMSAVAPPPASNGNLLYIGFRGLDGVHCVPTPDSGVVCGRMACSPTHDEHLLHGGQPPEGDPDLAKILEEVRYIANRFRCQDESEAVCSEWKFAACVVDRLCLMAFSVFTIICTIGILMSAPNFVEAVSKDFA
substance,measurement,setting,value
ivermectin,EC50,[1],~30000 nM
same,EC50,[2],~250 nM
same,AUC(0-t),[3],8259.31 ± 1032.95 ng·h/mL
same,AUC(0-∞),[3],8273.53 ng·h/mL
same,Cmax,[3],1722.67 ng/mL
same,MRT(0-t),[3],10.58 h
same,MRT(0-∞),[3],10.81 h
same,T1/2,[3],14.82 ± 0.72 h
same,Tmax,[3],0.50 h
same,EC50,[4],~1200 nM
same,Chemical compatibility with the API,[5]; PEG 400 as co-solvent,poor chemical compatibility
same,Chemical compatibility with the API,[5]; Vitamin E TPGS compared with Tween 80 and Labrasol ALF (surfactants),best chemical compatibility
same,Chromatographic purity by HPLC (Assay),[5]; [6],97.83 % area
same,Total Impurities % (excluding API impurities %),[5]; [6],<LOQ
same,Chromatographic purity by HPLC (Assay),[5]; [7],95.61 % area
same,Total Impurities % (excluding API impurities %),[5]; [7],<LOQ
same,Chromatographic purity by HPLC (Assay),[5]; [8],97.94 % area
same,Total Impurities % (excluding API impurities %),[5]; [8],<LOQ
same,Chromatographic purity by HPLC (Assay),[5]; [9],94.42 % area
same,Total Impurities % (excluding API impurities %),[5]; [9],3.28 % adjusted area
same,Chromatographic purity by HPLC (Assay),[5]; [10],89.91 % area
same,Total Impurities % (excluding API impurities %),[5]; [10],8.76 % adjusted area
same,Chromatographic purity by HPLC (Assay),[5]; [11],93.91 % area
same,Total Impurities % (excluding API impurities %),[5]; [11],3.46 % adjusted area
same,Chromatographic purity by HPLC (Assay),[5]; [12],97.74 % area
same,Total Impurities % (excluding API impurities %),[5]; [12],<LOQ
same,Chromatographic purity by HPLC (Assay),[5]; [13],81.35 % area
same,Total Impurities % (excluding API impurities %),[5]; [13],20.49 % adjusted area
same,Chromatographic purity by HPLC (Assay),[5]; [14],89.16 % area
same,Total Impurities % (excluding API impurities %),[5]; [14],8.67 % adjusted area
same,Chromatographic purity by HPLC (Assay),[5]; [15],96.49 % area
same,Total Impurities % (excluding API impurities %),[5]; [15],1.06 % adjusted area
same,Chromatographic purity by HPLC (Assay),[5]; [16],97.11 % area
same,Total Impurities % (excluding API impurities %),[5]; [16],0.30 % adjusted area
same,Chromatographic purity by HPLC (Assay),[5]; [17],96.83 % area
same,Total Impurities % (excluding API impurities %),[5]; [17],0.69 % adjusted area
same,Chromatographic purity by HPLC (Assay),[5]; [18],95.90 % area
same,Total Impurities % (excluding API impurities %),[5]; [18],0.45 % adjusted area
same,Chromatographic purity by HPLC (Assay),[5]; [19],97.13 % area
same,Total Impurities % (excluding API impurities %),[5]; [19],0.58 % adjusted area
same,Chromatographic purity by HPLC (Assay),[5]; [20],96.82 % area
same,Total Impurities % (excluding API impurities %),[5]; [20],0.71 % adjusted area
same,Chromatographic purity by HPLC (Assay),[5]; [21],96.00 % area
same,Total Impurities % (excluding API impurities %),[5]; [21],0.35 % adjusted area
same,Chromatographic purity by HPLC (Assay),[5]; [22],96.94 % area
same,Total Impurities % (excluding API impurities %),[5]; [22],0.58 % adjusted area
same,Chromatographic purity by HPLC (Assay),[5]; [23],96.15 % area
same,Total Impurities % (excluding API impurities %),[5]; [23],0.33 % adjusted area
same,Chromatographic purity by HPLC (Assay),[5]; [24],91.68 % area
same,Total Impurities % (excluding API impurities %),[5]; [24],6.60 % adjusted area
same,Chromatographic purity by HPLC (Assay),[5]; [25],95.11 % area
same,Total Impurities % (excluding API impurities %),[5]; [25],2.27 % adjusted area
same,Chromatographic purity by HPLC (Assay),[5]; [26],97.58 % area
same,Total Impurities % (excluding API impurities %),[5]; [26],0.17 % adjusted area
same,Chromatographic purity by HPLC (Assay),[5]; [27],97.06 % area
same,Total Impurities % (excluding API impurities %),[5]; [27],0.45 % adjusted area
same,Chromatographic purity by HPLC (Assay),[5]; [28],96.81 % area
same,Total Impurities % (excluding API impurities %),[5]; [28],0.58 % adjusted area
same,Chromatographic purity by HPLC (Assay),[5]; [29],97.31 % area
same,Total Impurities % (excluding API impurities %),[5]; [29],0.18 % adjusted area
same,Chromatographic purity by HPLC (Assay),[5]; [30],97.35 % area
same,Total Impurities % (excluding API impurities %),[5]; [30],0.11 % adjusted area
same,Chromatographic purity by HPLC (Assay),"[5]; in Oleic acid, Sample: 10% water, T = 2 weeks",86.02 % area
